Reference: patent US20220175667A1, “Extracellular Matrices, Uses Thereof, and Methods of Making Extracellular Matrices” (Johns Hopkins University, priority 2019, published 2022)

Experiment: Reactivity of valsartan under EMR curing conditions
Type: physicochemical
Conditions: mixed with dextramate, PEGDA, Irgacure; cured for 10 minutes
Procedure: Dextramate (24.2 mL of a 23.1 w/w % solution), PEGDA (16.3 mL of a 8.6 w/w % solution), Irgacure (14 mL of a 0.5 w/w % solution), and valsartan (2.82 mL or 1.41 mL of a 24.8 w/w % solution or 2.82 mL of a 1:10 dilution of a 24.8 w/w % solution) are mixed together. The mixture is cured for 10 minutes. After curing, 100 mL of dH2O is added to the cured product to create a swelled gel.

reactivity under the curing conditions: does not exhibit reactivity
Structure (SMILES): CCCCC(=O)N(Cc1ccc(-c2ccccc2-c2nnn[nH]2)cc1)[C@H](C(=O)O)C(C)C [valsartan]
